Assay results taken from patent US20140350097A1, “TREATMENT OF HYPOTENSION ASSOCIATED WITH HEMODIALYSIS” (priority 2013, published 2014).

Assays:
[1] = Binding of .NO by NOX-100 in the presence of a metal ion; conditions: in the presence of a metal ion (e.g., iron)
Description: As illustrated in Scheme 1 following, the binding is a two-step process. First, two molecules of NOX-100 combine with Fe^2+ to form a complex, [(NOX)2-Fe], which is held together via the planar coordination of the Fe^2+ by two dithiocarbamates. Next, the [(NOX)2-Fe] complex tightly binds .NO, forming an .NO-containing complex, [(NOX)2-Fe—NO]. See e.g., Yokokawa et al, 1995, Id.; Kang et al, 1997, Id.

Wistar rats = test: Endotoxin (LPS)-induced shock in Wistar rats; type: in vivo, rat
Description: For example, in Wistar rats, shock induced by endotoxin such as LPS (lipopolysaccharide from Salmonella typhosa) is accompanied by severe hypotension, as well known in the art. […] In addition, the survival rate was increased by NOX-100.
Bacterial translocation across damaged intestinal epithelium into the circulation occurs in rats during endotoxin-induced shock, as evidenced by positive bacterial cultures grown from blood, mesenteric lymph nodes, spleen, or liver obtained after LPS challenge.
Moreover, in the rat shock model, liver injury occurs as a result of hypoperfusion and Kupffer cell activation with the release of cytokines by LPS.

albino rats = test: Single dose infusion toxicity in albino rats; type: in vivo; conditions: single dose 1000, 1450 or 2000 mg/kg infused over 2 or 8 hours
Description: Based on the preliminary I.V. and S.C. studies, doses of 1000, 1450 or 2000 mg/kg of NOX-100 administered over an 8-hour period were tested in albino rats. A total dose of 2000 mg/kg administered over a shorter period of 2 hours was then tested.

beagle dogs [2] = test: 1 or 4 day infusion toxicity in beagle dogs; type: in vivo, dog
beagle dogs [3] = test: 14-day infusion toxicity in beagle dogs; type: in vivo
Description: Based on the findings from the 4-day study, doses of NOX-100 at 100, 500 and 1000 mg/kg/day infused over a period of 8 hours for 14 days were evaluated in beagle dogs. […] Therefore the high dose of 1000 mg/kg/day was reduced to 250 mg/kg/day on Days 8-14. […] The low dose of 100 mg/kg/day over a period of 8 hours was considered a no-effect level.
The no adverse effect level in dogs (the animal that appeared most sensitive to the effects of NOX-100) was 100 mg/kg given as an 8 hour daily infusion for 14 days. In this study, the NOX-100 was administered as an 11.1 mg/kg bolus loading dose and an 8-hour 11.1 mg/kg/hr infusion maintenance dose.

[4] = Preliminary intravenous pharmacokinetics in rats; type: in vivo, rat; conditions: bolus injection 30 mg/kg i.v.
Description: The pharmacokinetics of intravenously administered NOX-100 was evaluated in mice, rats and dogs. Preliminary pharmacokinetic studies were conducted using a bolus injection of 30 mg/kg. Post injection, the drug was rapidly eliminated in all three species in a bi-exponential manner with a beta-t½ of approximately 6, 30 and 40 minutes in the mouse, rat and dog, respectively. […] The volume of distribution was around 20-30% of body weight and was similar in the three species. This is likely due to the hydrophilic nature of the drug and may reflect the distribution of NOX-100 primarily in the extracellular space.

Crj:CD(SD)IGS rats (SPF) = test: Four-week repeated dose intravenous toxicity study in rats with two-week recovery; type: in vivo, rat
Description: The objective of this study was to investigate the toxicity of NOX-100 when administered as a single intravenous injection once daily for four consecutive weeks to Sprague-Dawley (SPF) rats and to determine the reversibility of changes which were established as treatment related.
NOX-100 was administered intravenously as a daily single dose (“pulse”) (40 mL/kg) at doses of 100, 500, and 2000 mg/kg/day for four weeks in Crj:CD(SD)IGS rats (SPF). The Control group was treated with saline (n=60 rats per gender−balanced randomization across all groups.) Following termination of treatment, an additional group of rats in the Control and highest dose group were held for a period of two weeks in order determine if the potential treatment related changes were reversible.

beagle dogs [5] = test: Four-week repeated dose intravenous toxicity study in beagle dogs with two-week recovery; type: in vivo, dog
Description: The objective of this study was to investigate the toxicity of NOX-100 when administered as a single intravenous injection once daily for four consecutive weeks to beagle dogs and to determine the reversibility of changes which were established as treatment related. In addition, the systemic exposure of the animals to the test substance was determined and evaluated for correlation with dose and time after starting treatment.
NOX-100 was administered intravenously as a daily single dose (20 mL/kg administered over approximately 2.5 minutes) of 100, 300, and 1000 mg/kg for four weeks in Beagle dogs (n=17 dogs per gender−unbalanced randomization across treated groups). Following the termination of treatment, an additional group of dogs in the Control and highest dose group were held for a period of two weeks in order to determine if the potential treatment related changes were reversible.

[6] = both, beagle, dog, in vivo, 4 weeks

## CN(C[C@H](O)[C@@H](O)[C@H](O)[C@H](O)CO)C(=S)S [NOX-100, N-methyl-D-glucamine dithiocarbamate]
[1]
  binding of .NO: binds .NO very tightly
Wistar rats; Wistar rats, LPS shock
  survival rate: increased
Wistar rats; Wistar rats, dose 0.3 mmol/kg
  LPS shock hypotension: gradually reversed towards normal blood pressure levels
Wistar rats; rat shock model, 200 mg/kg/day
  plasma indices of liver injury (ornithine carbamoyltransferase, aspartate transaminase, fibrinogen): all significantly reduced
Wistar rats; rats, endotoxin-induced shock, prior infusion 200 mg/kg/day
  reduction of bacterial translocation: about 70%
Albino rats
  mortality: no mortality
Beagle dogs [2]; 2000 mg/kg/day
  pathological findings: thickening of the duodenal wall and tubular dilatation of the kidney with basophilia in the cortex and vacuolation in the areas of cortical tubules
Beagle dogs [2]; 500-2000 mg/kg/day, 8-hour infusion, 1 or 4 days
  body weight and food consumption: decreased
Beagle dogs [2]; 2 hours from the start of infusion, males and females
  plasma concentrations on Day 4 compared to Day 1: apparent increases
Beagle dogs [2]; dogs
  doses at which signs of adverse effects were first observed: 500 to 2000 mg/kg/day
Beagle dogs [3]; 1000 mg/kg/day, 8-hour infusion
  mortality: One male dog in the high dose (1000 mg/kg/day) group died on Day 6
Beagle dogs [3]; dog, in vivo
  dose concentration relationship: proportional dose concentration relationship
  mean plasma concentration throughout Days 1, 7 and 14: similar
  mean steady state plasma concentrations, males versus females: no differences
Beagle dogs [3]; dogs
  dose level of initial toxicity as multiple of the no adverse effect level: 5 times
Beagle dogs [3]; dogs, 8 hour daily infusion for 14 days
  no adverse effect level: 100 mg/kg
Beagle dogs [3]; dogs, over a period of 8 hours, 14 days
  no-effect level: 100 mg/kg/day
Beagle dogs [3]; each day
  mean plasma concentration between 4 to 7.75 hours from the start of infusion: remained constant
Beagle dogs [3]; generally at 500 or 1000 mg/kg/day
  clinical and laboratory findings accompanied by renal lesions: Clinical signs of deterioration, reduction in body weight and food intake together with changes in serum chemistry and creatinine clearance
Beagle dogs [3]; male, 1000 mg/kg/day
  histopathological examination of the animal that died: renal lesions consisting of tubular basophilia and dilatation, hyperplasia of the transitional epithelium of the papilla and some vascular hemorrhage or congestion
[4]; in vivo, iv, rat, read-out: beta-t½
  half-life: ~30 min
[4]; rat, in vivo, iv, rats, read-out: clearance rate
  clearance: 15 ± 1 mL/min/kg
[4]; rats
  volume of distribution: 20-30 % of body weight
Crj:CD(SD)IGS rats (SPF); rat, in vivo
  food consumption or body weight gain versus Control: no significant differences
  ophthalmological examinations: No changes
  reversibility after a two week period of bladder mucosal hyperplasia, proximal tubule basophilia and renal papillary edema: could not be confirmed
  reversibility of urinary bladder change: no clear-cut reversibility
Crj:CD(SD)IGS rats (SPF); rat, in vivo, 2000 mg/kg
  blood sodium, chloride and albumin: increased
  cholesterol level: increased
  hemoglobin: decrease
Crj:CD(SD)IGS rats (SPF); rats, daily single i.v. dose, four weeks
  no adverse effect level: 100 mg/kg
Beagle dogs [5]; [6]
  clinical observation: salivation: salivation in the 1000 mg/kg group
  clinical observation: vomiting: vomiting in the 100 mg/kg or higher dose groups
Beagle dogs [5]; dog, in vivo
  body weight, food consumption, hematology, EKG, ophthalmology or organ weights: no changes
  gender related difference in systemic exposure: no gender related difference
  incidence of vomiting after dosing, Treated groups versus group not dosed: higher
  microscopic changes due to study substance: no microscopic changes
  reversibility of other changes: reversed completely or showed a tendency for reversal
  site of main toxicological findings: kidneys and urinary bladder
  systemic exposure (blood levels) versus dose: linear dose dependent increase
  urine specific gravity and urine volume: decrease in specific gravity and increase in urine volume
Beagle dogs [5]; dog, in vivo, 1000 mg/kg
  histopathological examination: pelvic mucosa and urinary bladder: Inflammatory cell infiltration in the pelvic mucosa, and erosion of mucosa in the urinary bladder
  kidney histopathology of the moribund animal: moderate basophilia of the proximal renal tubules, pelvic mucosal epithelial hyperplasia, hyaline droplets in the proximal tubular epithelium and pelvic mucosal epithelium in the kidneys
  laboratory determinations of sodium: increased
  laboratory results on the day of necropsy, moribund animal: an increased white cell count with increased segmented neutrophils and an increase in gamma GT, ALP, urea nitrogen, creatinine, glucose, cholesterol, phospholipids, triglyceride, total protein, albumin, inorganic phosphorus and magnesium and a decrease in sodium and chloride
  moribundity: became moribund six days after starting treatment
  necropsy organ weights of the moribund animal: increased absolute and relative weight of the liver, kidneys and adrenals with a decrease noted in the thymus weight
  other histopathological findings in the moribund animal: follicular atrophy of the mesenteric lymph node, acute atrophy of the thymus, glycogen accumulation in the liver, erosion of mucosa in the urinary bladder, and hypertrophy of cortical cells in the fascicular zone of the adrenals
  renal papilla of the moribund animal: for the most part necrotic
Beagle dogs [5]; dogs, pulse IV injection daily, four weeks
  no adverse effect level: less than 100 mg/kg
Beagle dogs [5]; male, beagle, dog, in vivo, 1000 mg/kg
  clinical signs in the moribund animal: vomiting occurred on Days 1 to 6, no stools were passed on Days 4 to 6, decreased locomotor activity was noted on Days 5 to 6 and hypothermia and lateral position was noted on Day 6
